# Assay results from patent US20220088016A1, “CANCER TREATMENT USING MULTI-TARGETED KINASE INHIBITOR IN COMBINATION OF PROTEIN KINASE BIOMARKERS” (ZHEJIANG CROWNMAB BIOTECH CO. LTD., priority 2019, published 2022).
# Values joined by “and” are separate entries in the source; they are usually repeats but may differ in a detail not shown here. Identical values can stand only once.
# Legend:
# [1] = molecular target: ABL1 (T315I)-phosphorylated (Homo sapiens, UniProt P00519, T315I); assay: Kinase profiling; format: binding; conditions: read-out: % Ctrl @ 1000 nM
# [2] = molecular target: ACVR2A (Homo sapiens, UniProt P27037); assay: Kinase profiling; format: binding; conditions: read-out: % Ctrl @ 1000 nM
# ACVR2A, sequence (P27037 20-513): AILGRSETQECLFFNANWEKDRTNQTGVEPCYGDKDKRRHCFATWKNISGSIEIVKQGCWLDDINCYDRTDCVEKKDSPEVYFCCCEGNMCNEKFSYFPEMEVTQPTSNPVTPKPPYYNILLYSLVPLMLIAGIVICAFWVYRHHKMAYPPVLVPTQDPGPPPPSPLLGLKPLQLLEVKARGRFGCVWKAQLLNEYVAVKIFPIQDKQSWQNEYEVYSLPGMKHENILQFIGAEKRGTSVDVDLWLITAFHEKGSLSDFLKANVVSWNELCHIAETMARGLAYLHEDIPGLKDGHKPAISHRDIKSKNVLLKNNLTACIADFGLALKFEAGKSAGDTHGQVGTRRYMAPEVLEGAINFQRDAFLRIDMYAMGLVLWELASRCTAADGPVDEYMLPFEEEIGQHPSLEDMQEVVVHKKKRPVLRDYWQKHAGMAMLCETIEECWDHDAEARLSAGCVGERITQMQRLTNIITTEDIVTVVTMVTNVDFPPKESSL
# [3] = molecular target: ANKK1 (Homo sapiens, UniProt Q8NFD2); assay: Kinase profiling; format: binding; conditions: read-out: % Ctrl @ 1000 nM
# ANKK1, sequence (Q8NFD2 whole entry): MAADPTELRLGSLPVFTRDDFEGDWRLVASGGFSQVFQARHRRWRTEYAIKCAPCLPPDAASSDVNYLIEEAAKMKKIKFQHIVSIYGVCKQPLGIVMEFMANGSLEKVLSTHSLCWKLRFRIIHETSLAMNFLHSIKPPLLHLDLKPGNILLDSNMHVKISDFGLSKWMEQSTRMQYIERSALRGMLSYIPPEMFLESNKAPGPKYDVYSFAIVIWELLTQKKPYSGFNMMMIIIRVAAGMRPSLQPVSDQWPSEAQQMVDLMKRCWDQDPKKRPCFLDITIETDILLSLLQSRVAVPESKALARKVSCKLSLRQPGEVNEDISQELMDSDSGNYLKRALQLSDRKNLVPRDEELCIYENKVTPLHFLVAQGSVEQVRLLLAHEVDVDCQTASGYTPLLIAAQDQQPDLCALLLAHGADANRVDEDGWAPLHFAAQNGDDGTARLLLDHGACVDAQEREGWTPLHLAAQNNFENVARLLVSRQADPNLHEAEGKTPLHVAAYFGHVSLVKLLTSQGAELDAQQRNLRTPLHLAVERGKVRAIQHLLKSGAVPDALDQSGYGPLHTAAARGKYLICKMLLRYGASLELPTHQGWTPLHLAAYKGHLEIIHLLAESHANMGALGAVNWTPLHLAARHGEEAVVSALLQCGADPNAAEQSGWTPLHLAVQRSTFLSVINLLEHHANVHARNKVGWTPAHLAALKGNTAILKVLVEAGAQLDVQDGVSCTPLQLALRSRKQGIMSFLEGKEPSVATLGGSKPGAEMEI
# [4] = molecular target: BMPR1B (Homo sapiens, UniProt O00238); assay: Kinase profiling; format: binding; conditions: read-out: % Ctrl @ 1000 nM
# BMPR1B, sequence (O00238 14-502): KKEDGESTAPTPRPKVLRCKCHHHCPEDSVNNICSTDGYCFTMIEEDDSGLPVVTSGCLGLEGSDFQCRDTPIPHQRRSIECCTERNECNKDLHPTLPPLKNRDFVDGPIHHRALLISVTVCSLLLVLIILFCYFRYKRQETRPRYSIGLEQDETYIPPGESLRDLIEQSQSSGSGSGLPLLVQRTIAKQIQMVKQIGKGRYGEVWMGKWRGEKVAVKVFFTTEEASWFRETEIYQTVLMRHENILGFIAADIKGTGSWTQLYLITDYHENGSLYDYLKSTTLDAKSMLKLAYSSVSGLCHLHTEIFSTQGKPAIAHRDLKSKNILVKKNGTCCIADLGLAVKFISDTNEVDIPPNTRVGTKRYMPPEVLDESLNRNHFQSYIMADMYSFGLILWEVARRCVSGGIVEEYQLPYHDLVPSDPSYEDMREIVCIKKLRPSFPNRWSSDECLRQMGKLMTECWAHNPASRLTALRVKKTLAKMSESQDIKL
# [5] = molecular target: BRSK2 (Homo sapiens, UniProt Q8IWQ3); assay: Kinase profiling; format: binding; conditions: read-out: % Ctrl @ 1000 nM
# [6] = molecular target: BTK (Homo sapiens, UniProt Q06187); assay: Kinase profiling; format: binding; conditions: read-out: % Ctrl @ 1000 nM
# [7] = molecular target: CAMK2D (Homo sapiens, UniProt Q13557); assay: Kinase profiling; format: binding; conditions: read-out: % Ctrl @ 1000 nM
# [8] = molecular target: CLK1 (Homo sapiens, UniProt P49759); assay: Kinase profiling; format: binding; conditions: read-out: % Ctrl @ 1000 nM
# CLK1, sequence (P49759 whole entry): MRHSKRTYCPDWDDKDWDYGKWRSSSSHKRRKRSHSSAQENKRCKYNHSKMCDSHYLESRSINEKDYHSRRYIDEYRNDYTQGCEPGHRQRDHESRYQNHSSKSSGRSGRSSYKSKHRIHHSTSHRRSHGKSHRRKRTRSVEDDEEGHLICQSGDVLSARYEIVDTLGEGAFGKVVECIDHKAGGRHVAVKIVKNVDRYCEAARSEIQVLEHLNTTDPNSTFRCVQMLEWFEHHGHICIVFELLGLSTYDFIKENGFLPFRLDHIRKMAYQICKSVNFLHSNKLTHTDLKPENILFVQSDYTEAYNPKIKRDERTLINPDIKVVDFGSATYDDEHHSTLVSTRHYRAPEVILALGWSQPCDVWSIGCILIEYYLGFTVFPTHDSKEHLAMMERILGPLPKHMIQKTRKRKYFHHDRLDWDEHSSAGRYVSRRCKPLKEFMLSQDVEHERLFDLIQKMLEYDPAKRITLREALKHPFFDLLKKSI
# [9] = molecular target: CTK (Homo sapiens, UniProt P42679); assay: Kinase profiling; format: binding; conditions: read-out: % Ctrl @ 1000 nM
# CTK, sequence (P42679 whole entry): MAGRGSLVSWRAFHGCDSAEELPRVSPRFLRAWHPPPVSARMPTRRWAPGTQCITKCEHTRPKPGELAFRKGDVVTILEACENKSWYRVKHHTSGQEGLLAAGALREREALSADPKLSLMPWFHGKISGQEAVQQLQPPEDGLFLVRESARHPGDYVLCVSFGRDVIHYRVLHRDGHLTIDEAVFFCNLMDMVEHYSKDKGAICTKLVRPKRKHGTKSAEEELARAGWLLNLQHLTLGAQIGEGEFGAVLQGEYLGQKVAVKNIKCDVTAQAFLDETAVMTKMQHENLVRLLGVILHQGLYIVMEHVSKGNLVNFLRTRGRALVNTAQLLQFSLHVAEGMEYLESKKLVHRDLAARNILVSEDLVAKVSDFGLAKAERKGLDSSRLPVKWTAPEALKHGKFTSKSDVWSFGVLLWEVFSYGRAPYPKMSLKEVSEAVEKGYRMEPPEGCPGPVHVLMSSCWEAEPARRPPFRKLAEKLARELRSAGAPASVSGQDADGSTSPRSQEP
# [10] = system: FLT3 (ITD, D835V); assay: Kinase profiling; format: binding
# [11] = molecular target: FRK (Homo sapiens, UniProt P42685); assay: Kinase profiling; format: binding; conditions: read-out: % Ctrl @ 1000 nM
# [12] = molecular target: GSK3B (Homo sapiens, UniProt P49841); assay: Kinase profiling; format: binding; conditions: read-out: % Ctrl @ 1000 nM
# GSK3B, sequence (P49841 whole entry): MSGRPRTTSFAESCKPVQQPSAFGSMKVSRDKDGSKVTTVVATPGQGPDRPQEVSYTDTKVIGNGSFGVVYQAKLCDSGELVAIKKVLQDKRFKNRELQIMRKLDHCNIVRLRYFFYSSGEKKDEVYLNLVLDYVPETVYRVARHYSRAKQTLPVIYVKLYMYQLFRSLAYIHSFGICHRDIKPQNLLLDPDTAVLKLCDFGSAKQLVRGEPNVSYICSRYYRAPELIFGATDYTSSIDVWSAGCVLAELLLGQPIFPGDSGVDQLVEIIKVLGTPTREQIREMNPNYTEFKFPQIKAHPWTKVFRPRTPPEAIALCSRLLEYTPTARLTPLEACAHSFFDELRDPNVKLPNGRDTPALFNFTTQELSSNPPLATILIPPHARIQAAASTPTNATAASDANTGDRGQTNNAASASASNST
# [13] = molecular target: MAP3K3 (Homo sapiens, UniProt Q99759); assay: Kinase profiling; format: binding; conditions: read-out: % Ctrl @ 1000 nM
# [14] = molecular target: MARK4 (Homo sapiens, UniProt Q96L34); assay: Kinase profiling; format: binding; conditions: read-out: % Ctrl @ 1000 nM
# [15] = molecular target: T1, MEK1 (Homo sapiens, UniProt Q02750); assay: Kinase profiling; format: binding; conditions: read-out: % Ctrl @ 1000 nM
# T1 construct: T7 phage fusion (stated for most kinases of the panel only); made in house; host or cells: T7 phage in E. coli (BL21-derived) or HEK-293 cells
# [16] = molecular target: T2, MKK7 (Homo sapiens, UniProt O14733); assay: Kinase profiling; format: binding; conditions: read-out: % Ctrl @ 1000 nM
# T2 construct: T7 phage fusion (stated for most kinases of the panel only); made in house; host or cells: T7 phage in E. coli (BL21-derived) or HEK-293 cells
# [17] = molecular target: T3, MLK2 (Homo sapiens, UniProt Q02779); assay: Kinase profiling; format: binding; conditions: read-out: % Ctrl @ 1000 nM
# T3 construct: T7 phage fusion (stated for most kinases of the panel only); made in house; host or cells: T7 phage in E. coli (BL21-derived) or HEK-293 cells
# [18] = molecular target: T4, MST3 (Homo sapiens, UniProt Q9Y6E0); assay: Kinase profiling; format: binding; conditions: read-out: % Ctrl @ 1000 nM
# T4 construct: T7 phage fusion (said for most assays); made in house
# [19] = molecular target: T5, OSR1 (Homo sapiens, UniProt O95747); assay: Kinase profiling; format: binding; conditions: read-out: % Ctrl @ 1000 nM
# T5 construct: T7 phage fusion (said for most assays); made in house
# T5 sequence (O95747 whole entry, the tested form may be a part): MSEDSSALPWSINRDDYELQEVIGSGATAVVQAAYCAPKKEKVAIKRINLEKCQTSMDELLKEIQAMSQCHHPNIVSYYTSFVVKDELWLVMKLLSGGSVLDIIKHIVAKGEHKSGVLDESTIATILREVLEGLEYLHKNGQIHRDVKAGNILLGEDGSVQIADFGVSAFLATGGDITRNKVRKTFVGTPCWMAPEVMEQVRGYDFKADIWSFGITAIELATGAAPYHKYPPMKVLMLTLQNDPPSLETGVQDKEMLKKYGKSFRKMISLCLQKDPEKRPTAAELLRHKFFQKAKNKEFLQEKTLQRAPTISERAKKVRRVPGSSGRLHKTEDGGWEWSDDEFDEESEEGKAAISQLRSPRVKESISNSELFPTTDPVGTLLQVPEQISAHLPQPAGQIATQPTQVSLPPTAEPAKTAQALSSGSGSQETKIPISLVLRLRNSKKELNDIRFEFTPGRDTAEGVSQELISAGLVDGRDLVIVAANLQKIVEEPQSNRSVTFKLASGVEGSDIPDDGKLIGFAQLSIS
# [20] = molecular target: PAK2 (Homo sapiens, UniProt Q13177); assay: Kinase profiling; format: binding; conditions: read-out: % Ctrl @ 1000 nM
# [21] = molecular target: PIK3CA (E542K) (Homo sapiens, UniProt P42336, E542K); assay: Kinase profiling; format: binding; conditions: read-out: % Ctrl @ 1000 nM
# [22] = molecular target: PIK3CD (Homo sapiens, UniProt O00329); assay: Kinase profiling; format: binding; conditions: read-out: % Ctrl @ 1000 nM
# [23] = molecular target: PIM1 (Homo sapiens, UniProt P11309); assay: Kinase profiling; format: binding; conditions: read-out: % Ctrl @ 1000 nM
# [24] = molecular target: PIP5K2C (Homo sapiens, UniProt Q8TBX8); assay: Kinase profiling; format: binding; conditions: read-out: % Ctrl @ 1000 nM
# [25] = molecular target: PLK2 (Homo sapiens, UniProt Q9NYY3); assay: Kinase profiling; format: binding; conditions: read-out: % Ctrl @ 1000 nM
# PLK2, sequence (Q9NYY3 whole entry): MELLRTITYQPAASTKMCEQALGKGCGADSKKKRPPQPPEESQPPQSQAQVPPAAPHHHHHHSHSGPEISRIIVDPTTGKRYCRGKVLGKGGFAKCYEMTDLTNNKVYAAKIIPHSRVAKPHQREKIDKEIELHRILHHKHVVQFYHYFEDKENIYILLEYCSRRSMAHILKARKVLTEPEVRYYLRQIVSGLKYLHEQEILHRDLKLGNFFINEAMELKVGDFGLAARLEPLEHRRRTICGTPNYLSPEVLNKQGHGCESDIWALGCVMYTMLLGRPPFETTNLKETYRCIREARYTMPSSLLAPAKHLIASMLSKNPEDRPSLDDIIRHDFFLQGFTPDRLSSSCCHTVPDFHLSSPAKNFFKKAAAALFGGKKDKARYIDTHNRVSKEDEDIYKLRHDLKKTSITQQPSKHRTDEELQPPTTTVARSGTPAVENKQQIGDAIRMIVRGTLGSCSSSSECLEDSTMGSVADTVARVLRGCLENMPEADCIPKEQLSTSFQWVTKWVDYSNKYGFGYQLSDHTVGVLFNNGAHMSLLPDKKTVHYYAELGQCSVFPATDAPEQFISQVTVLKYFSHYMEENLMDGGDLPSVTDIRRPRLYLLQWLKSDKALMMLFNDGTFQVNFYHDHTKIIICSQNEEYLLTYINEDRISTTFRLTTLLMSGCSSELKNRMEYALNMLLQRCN
# [26] = molecular target: PRKG2 (Homo sapiens, UniProt Q13237); assay: Kinase profiling; format: binding; conditions: read-out: % Ctrl @ 1000 nM
# [27] = molecular target: S6K1 (Homo sapiens, UniProt P23443); assay: Kinase profiling; format: binding; conditions: read-out: % Ctrl @ 1000 nM
# S6K1, sequence (P23443 whole entry): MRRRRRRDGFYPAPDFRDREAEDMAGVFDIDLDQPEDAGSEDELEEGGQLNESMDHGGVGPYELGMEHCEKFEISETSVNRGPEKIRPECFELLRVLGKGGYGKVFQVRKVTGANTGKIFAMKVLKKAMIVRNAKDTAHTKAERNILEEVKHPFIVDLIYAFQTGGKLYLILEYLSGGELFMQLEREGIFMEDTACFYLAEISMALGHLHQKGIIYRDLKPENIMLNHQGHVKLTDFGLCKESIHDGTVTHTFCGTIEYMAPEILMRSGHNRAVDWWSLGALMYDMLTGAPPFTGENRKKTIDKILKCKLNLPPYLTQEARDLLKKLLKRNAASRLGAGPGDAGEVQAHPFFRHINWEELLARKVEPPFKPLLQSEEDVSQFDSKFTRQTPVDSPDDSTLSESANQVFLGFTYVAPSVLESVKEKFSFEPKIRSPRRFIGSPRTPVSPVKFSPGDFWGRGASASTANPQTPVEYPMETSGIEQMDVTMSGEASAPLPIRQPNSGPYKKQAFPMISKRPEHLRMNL
# [28] = molecular target: SNRK (Homo sapiens, UniProt Q9NRH2); assay: Kinase profiling; format: binding; conditions: read-out: % Ctrl @ 1000 nM
# [29] = molecular target: TGFBR2 (Homo sapiens, UniProt P37173); assay: Kinase profiling; format: binding; conditions: read-out: % Ctrl @ 1000 nM
# [30] = molecular target: TRKA (Homo sapiens, UniProt P04629); assay: Kinase profiling; format: binding; conditions: read-out: % Ctrl @ 1000 nM
# [31] = molecular target: TYK2 (JH1domain-catalytic) (Homo sapiens, UniProt P29597); assay: Kinase profiling; format: binding; conditions: read-out: % Ctrl @ 1000 nM
# [32] = molecular target: VEGFR2 (Homo sapiens, UniProt P35968); assay: Kinase profiling; format: binding; conditions: read-out: % Ctrl @ 1000 nM
# [33] = molecular target: VPS34 (Homo sapiens, UniProt Q8NEB9); assay: Kinase profiling; format: binding; conditions: read-out: % Ctrl @ 1000 nM
# [34] = molecular target: WNK1 (Homo sapiens, UniProt Q9H4A3); assay: Kinase profiling; format: binding; conditions: read-out: % Ctrl @ 1000 nM
# [35] = molecular target: WNK2 (Homo sapiens, UniProt Q9Y3S1); assay: Kinase profiling; format: binding; conditions: read-out: % Ctrl @ 1000 nM
# [36] = system: MC-38 tumor; assay: Subcutaneous MC-38 murine colon cancer model; format: in vivo, mouse; conditions: 20 mg/kg first 11 days, then 10 mg/kg
# Experimental: The MC-38 tumor cells were maintained in vitro with RPMI1640 medium supplemented with 10% fetal bovine serum at 37° C. in an atmosphere of 5% CO2 in air. Each mouse was inoculated subcutaneously after shaving at the right flank region with MC-38 tumor cells (1×10e6) in 0.1 mL of PBS for tumor development. The randomization started when the mean tumor size reached approximately 100 mm^3. Group 1 mice were treated vehicle and group 2 mice were treated 20 mg/kg CBT-102 at first 11 days and reduced to 10 mg/kg afterwards.
smiles,measurement,setting,value
Cc1cc(Oc2cc(NC(=O)C3CC3)ncn2)ccc1NC(=O)Nc1ccc(Cl)c(C(F)(F)F)c1 [CBT-102],remaining activity at 1 µM,[1],51%
same,remaining activity at 1 µM,[2],100%
same,remaining activity at 1 µM,[3],100%
same,remaining activity at 1 µM,[4],99%
same,remaining activity at 1 µM,[5],100%
same,remaining activity at 1 µM,[6],77%
same,remaining activity at 1 µM,[7],93%
same,remaining activity at 1 µM,[8],98%
same,remaining activity at 1 µM,[9],74%
same,% Ctrl @ 1000 nM,[10],98%
same,remaining activity at 1 µM,[11],6.1%
same,remaining activity at 1 µM,[12],42%
same,remaining activity at 1 µM,[13],95%
same,remaining activity at 1 µM,[14],100%
same,remaining activity at 1 µM,[15],83%
same,remaining activity at 1 µM,[16],66%
same,remaining activity at 1 µM,[17],99%
same,remaining activity at 1 µM,[18],89%
same,remaining activity at 1 µM,[19],96%
same,remaining activity at 1 µM,[20],94%
same,remaining activity at 1 µM,[21],96%
same,remaining activity at 1 µM,[22],100%
same,remaining activity at 1 µM,[23],95%
same,remaining activity at 1 µM,[24],85%
same,remaining activity at 1 µM,[25],93%
same,remaining activity at 1 µM,[26],91%
same,remaining activity at 1 µM,[27],99%
same,remaining activity at 1 µM,[28],100%
same,remaining activity at 1 µM,[29],56%
same,remaining activity at 1 µM,[30],74%
same,remaining activity at 1 µM,[31],5.6%
same,remaining activity at 1 µM,[32],1.4%
same,remaining activity at 1 µM,[33],80%
same,remaining activity at 1 µM,[34],87%
same,remaining activity at 1 µM,[35],100%
same,Tumor Size on day34,[36]; Day34 (PG-D21),454.63 mm^3 and 454.63 ± 60.72 mm^3
same,T/C,[36]; day34,20.09%
same,TGI,"[36]; day34, vs vehicle",79.91%
